The source of these data is patent EP4755886A1 (Chengdu Chipscreen Pharmaceutical Ltd., priority 2023, dated 2025).

For one data set, the target named is T1, CYP450 enzyme 3A4 (Homo sapiens, UniProt P08684).
T1 construct: Liver microsomes (purchased from BIOIVT, Cat. No.: X008070); tissue BIOIVT X008070; host or cells: human liver microsomes
Description: CYP inhibition test in human liver microsomes. The class given is in vitro ADME. Conditions: human liver microsomes 0.1 mg/mL. As for the experimental part: Experimental materials: human liver microsomes (purchased from BIOIVT);
PBS: 0.1 M KH2PO4 and K2HPO4 buffers, pH 7.4.
MgCl2: a certain amount of MgCl2 was weighed out and prepared into a 20 mM MgCl2 solution with PBS.
NADPH (Chinese name: reduced nicotinamide adenine dinucleotide phosphate, purchased from Sigma, Cat. No.: 481973-500 mg): a certain amount of NADPH was weighed out and a 5 mM solution of NADPH was prepared with a 20 mM MgCl2 solution, and the final incubation concentration was 1 mM.
Compounds: 3 mM, 1 mM, 0.3 mM, 0.1 mM, 0.03 mM, 0.01 mM, and 0 mM solutions of the test compounds were prepared with a DMSO-methanol (v:v = 1:9) solution, and the final incubation concentrations were 30 µM, 10 µM, 3 µM, 1 µM, 0.3 µM, 0.1 µM, and 0 µM. 30 µM, 10 µM, 3 µM, 1 µM, 0.3 µM, and 0 µM solutions of the positive compound (ketoconazole) were prepared with a DMSO-methanol (v:v = 1:9) solution, and the final incubation concentrations were 0.3 µM, 0.1 µM, 0.03 µM, 0.01 µM, 0.003 µM, and 0 µM.
Substrate working solutions: 200 µM and 15 µM solutions of substrate working solutions (testosterone and midazolam) were prepared with PBS, separately, and the final incubation concentrations were 40 µM and 3 µM.
Liver microsomes (purchased from BIOIVT, Cat. No.: X008070): the liver microsomes were diluted to […] with PBS, and the final incubation concentration was 0.1 mg/mL.
The prepared test compounds or positive compounds were added to a 96-well plate, and then the prepared human liver microsome working solution and substrate working solution were added. The mixture was mixed well. The mixture was pre-incubated in a thermostat incubator at 37 °C for 5 min, and then the prepared NADPH was added to start the reaction. The mixture was incubated for 5 min or 10 min. After the incubation was completed, a pre-cooled acetonitrile solution containing an internal standard was added to terminate the reaction. After protein precipitation, the mixture was vortexed for 5 min with shaking and then centrifuged at 4000 rpm for 10 min. The supernatant was collected and added to the 96-well plate. The content (peak concentration ratio) of the metabolites of the substrate was determined by an LC-MS/MS method. The residual activity and the half maximal inhibitory concentration (IC50) of the enzyme were calculated based on the detected content.
Percentage of remaining enzyme activity: The activity of each subtype of CYP450 enzyme was expressed as the amount of metabolite produced, and the percentage of remaining enzyme activity was calculated as follows: [formula]
The concentrations of the test substances and the corresponding residual activity percentages were fitted using a nonlinear model of Excel software, and the concentration of the test substances at which 50% inhibition of metabolite production was achieved was the IC50 value.

Data set [1] concerns human large cell lung cancer cell line LU99. In words: Efficacy in LU99 xenograft mouse model. The settings on record: PO, qd, 28 days. Type of data set: in vivo, Balb/c nude mice. As to the method: The human large cell lung cancer cell line LU99 was purchased from Nanjing Cobioer Biosciences Co., Ltd. (CBP61512) and cultured in RPMI-1640 medium (Gibco) containing 10% fetal bovine serum (Gibco); the test substances were prepared into suspensions at concentrations of 0.3 mg/mL, 1 mg/mL, and 5 mg/mL using a 0.5% aqueous MC solution containing 0.2% Tween 80. Reference Example 6 (MRTX1719) was prepared into a 5 mg/mL clear solution using 40% PEG400 normal saline containing 2% DMSO.
LU99 cells in the logarithmic growth phase were digested, collected, and counted, and the cell density was adjusted to 2 × 10^7 cells/mL using a 1:1 serum-free medium and matrigel (Corning). 18-20 g of Balb/c nude mice (Beijing Huafukang Biotechnology Co., Ltd.) were inoculated subcutaneously with 100 µL of cell suspension per mouse. On day 12 after inoculation, animals with a mean tumor volume of 116 mm^3 were randomly grouped, with 7 animals in each group. The test substances were intragastrically administered at 3 mg/kg, 10 mg/kg, and 50 mg/kg once daily, and MRTX1719 was intragastrically administered at 50 mg/kg once daily. A vehicle (2% DMSO + 40% PEG400 + 58% normal saline) was intragastrically administered to the blank group at a dose of 10 mL/kg once daily. Administration was performed for 28 days in total.
After the animals were inoculated with LU99 cells, the tumor volume was measured 2-3 times a week, and the tumor volume was calculated based on length × width^2 × 0.5. On the day when the last administration was completed, except for the mice with tumor regression, which were subjected to discontinuation observation, the remaining mice were euthanized.
In the formula, VTt represents the tumor volume of the treatment group at each measurement, and VT0 represents the tumor volume measured when the treatment group is grouped; VCt represents the tumor volume of the model control group at each measurement, and VC0 represents the tumor volume measured when the model control group is grouped.
Data were analyzed using GraphPad Prism 9.0 software and expressed as Mean ± SEM (standard error). Pairwise comparisons between each administration group and the model control group were performed using one-way analysis of variance (ANOVA). Variance homogeneity was determined using the Brown-Forsythe method, and variance heterogeneity was determined using the Dunnett's T3 method. Table 8. Efficacy evaluation in LU99 xenograft mouse model

The nature of another data set: PK experiment in mice. The settings on record: mouse, plasma, po, 10 mg/kg.
A further data set is described as follows: PK experiment in rats. Type of data set: in vivo. Conditions: rat; SD male rats, PO 10 mg/kg, vehicle 0.5% MC/0.2% Tween 80, plasma. As for the experimental part: The samples were analyzed by LC-MS/MS. […] Table 6. Pharmacokinetic parameters for rats
Setting [2] is: substrate midazolam 3 µM, read-out: IC50 3A4-Midazolam.
[3] abbreviates: substrate testosterone 40 µM, read-out: IC50 3A4-Testosterone.

Like-named read-outs stand apart in the source and are kept apart here.

T1 sequence (P08684 whole entry): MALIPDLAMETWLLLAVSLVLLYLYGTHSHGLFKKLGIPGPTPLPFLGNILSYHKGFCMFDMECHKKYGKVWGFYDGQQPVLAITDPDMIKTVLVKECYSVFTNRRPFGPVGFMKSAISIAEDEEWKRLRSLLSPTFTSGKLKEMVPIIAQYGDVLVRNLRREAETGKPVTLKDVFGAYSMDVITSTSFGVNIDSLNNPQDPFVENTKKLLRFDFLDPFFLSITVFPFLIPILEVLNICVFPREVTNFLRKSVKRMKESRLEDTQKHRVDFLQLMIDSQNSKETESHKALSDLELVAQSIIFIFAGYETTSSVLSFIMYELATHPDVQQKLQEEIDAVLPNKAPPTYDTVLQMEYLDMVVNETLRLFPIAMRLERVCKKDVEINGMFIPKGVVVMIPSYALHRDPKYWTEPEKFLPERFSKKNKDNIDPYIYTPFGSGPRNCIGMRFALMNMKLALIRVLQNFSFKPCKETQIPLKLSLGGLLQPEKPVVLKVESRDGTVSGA

For the compound `CN(C(=O)c1cc2c(cc1F)nc(N)c1cnn(C)c12)[C@@H]1COc2cc(C#Cc3cnn(C)c3)ccc21` [Compound 5A, (S)-4-amino-7-fluoro-N,1-dimethyl-N-(6-((1-methyl-1H-pyrazol-4-yl)ethynyl)-2,3-dihydrobenzofuran-3-yl)-1H-pyrazolo[4,3-c]quinoline-8-carboxamide], the IC50 at CYP450 enzyme 3A4 (setting [2]) and at CYP450 enzyme 3A4 (setting [3]) was more than 30 µM each time. The TGI in data set [1] (3 mg/kg) turned out to be 81.96%; in data set [1] (10 mg/kg), 95.20%; in data set [1] (50 mg/kg) it was 103.12%. Moreover, the Tumor volume in data set [1] (3 mg/kg) is given as 438.73 mm^3; in data set [1] (10 mg/kg), 202.05 mm^3; in data set [1] (50 mg/kg), 60.72 mm^3. The AUC(0-t) in “PK experiment in mice” amounted to 15700 ± 1600 ng·h/mL; in “PK experiment in rats”, 15600 ± 4640 ng·h/mL. For the same compound, the Cmax in “PK experiment in mice” worked out at 2220 ± 230 ng/mL; in the data set “PK experiment in rats” it was 2180 ± 777 ng/mL.

For `CN(C(=O)c1cc2c3c(c(N)nc2cc1Cl)COC3)[C@@H]1COc2cc(C#Cc3cnn(C4CC4)c3)ccc21` [Compound 43A, (S)-4-amino-7-chloro-N-(6-((1-cyclopropyl-1H-pyrazol-4-yl)ethynyl)-2,3-dihydrobenzofuran-3-yl)-N-methyl-1,3-dihydrofuro[3,4-c]quinoline-8-carboxamide], the IC50 at CYP450 enzyme 3A4 (setting [2]) and at CYP450 enzyme 3A4 (setting [3]) was more than 30 µM each time. Further, the TGI in data set [1] (3 mg/kg) amounted to 83.27%; in data set [1] (10 mg/kg), 94.77%; in data set [1] (50 mg/kg) it was 104.92%. For the same compound, the Tumor volume is given as 415.58 mm^3 in data set [1] (3 mg/kg), 210.31 mm^3 in data set [1] (10 mg/kg) and 28.13 mm^3 in data set [1] (50 mg/kg). Moreover, the AUC(0-t) in the data set “PK experiment in mice” (female, BALB/c) is 32300 ± 3340 ng·h/mL; in “PK experiment in rats” it was 9650 ± 1170 ng·h/mL. The Cmax in the data set “PK experiment in mice” (female, BALB/c) came to 3420 ± 913 ng/mL; in “PK experiment in rats” it was 1220 ± 417 ng/mL.

Consider `Cc1nn(C)cc1C#Cc1ccc2c(c1)OC[C@H]2N(C)C(=O)c1cc2c3c(c(N)nc2cc1Cl)COC3` [Compound 50A, (S)-4-amino-7-chloro-N-(6-((1,3-dimethyl-1H-pyrazol-4-yl)ethynyl)-2,3-dihydrobenzofuran-3-yl)-N-methyl-1,3-dihydrofuro[3,4-c]quinoline-8-carboxamide], for which the IC50 at CYP450 enzyme 3A4 (setting [2]) and at CYP450 enzyme 3A4 (setting [3]) was more than 30 µM throughout.

The IC50 is the concentration at which inhibition is half-maximal. Usually AUC(0-t) stands for exposure summed from dosing to a finite time, without extrapolation to infinity. Read a high AUC(0-t) as more exposure. Usually Cmax stands for the maximum level reached in the sampled fluid or tissue.
